# In PMC4178172, “Molecular Determinants of Agonist Selectivity in Glutamate-Gated Chloride Channels Which Likely Explain the Agonist Selectivity of the Vertebrate Glycine and GABAA-ρ Receptors” (PLoS ONE, 2014):
# What was measured:
# GluClα2b = target: T1, GluClα2b (Caenorhabditis elegans, UniProt O17548, R111L); assay: whole-cell patch clamp, […] glutamate; assay type: cell-based
# T1 construct: gene avr-15; homomeric receptor expressed in CHO-K1 cells
# T1 sequence (O17548 21-478 R111L): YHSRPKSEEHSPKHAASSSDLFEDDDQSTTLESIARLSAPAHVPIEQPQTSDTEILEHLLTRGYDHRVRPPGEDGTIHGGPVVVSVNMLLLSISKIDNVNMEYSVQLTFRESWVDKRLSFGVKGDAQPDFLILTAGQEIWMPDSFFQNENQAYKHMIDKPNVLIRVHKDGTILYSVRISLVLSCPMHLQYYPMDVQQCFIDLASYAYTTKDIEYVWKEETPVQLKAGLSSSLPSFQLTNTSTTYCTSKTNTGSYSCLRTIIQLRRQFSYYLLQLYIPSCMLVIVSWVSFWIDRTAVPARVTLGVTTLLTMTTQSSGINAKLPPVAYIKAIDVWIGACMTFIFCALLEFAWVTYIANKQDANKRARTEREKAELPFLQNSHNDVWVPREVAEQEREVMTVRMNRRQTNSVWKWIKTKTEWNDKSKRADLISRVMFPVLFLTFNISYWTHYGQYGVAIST
# GluClAc2 = target: T2, GluClAc2 (Aplysia californica, UniProt C7DLK0, Y161A); assay: whole-cell patch clamp, […] glutamate; assay type: cell-based
# T2 construct: homomeric receptor expressed in CHO-K1 cells
# T2 sequence (C7DLK0 32-429 Y161A): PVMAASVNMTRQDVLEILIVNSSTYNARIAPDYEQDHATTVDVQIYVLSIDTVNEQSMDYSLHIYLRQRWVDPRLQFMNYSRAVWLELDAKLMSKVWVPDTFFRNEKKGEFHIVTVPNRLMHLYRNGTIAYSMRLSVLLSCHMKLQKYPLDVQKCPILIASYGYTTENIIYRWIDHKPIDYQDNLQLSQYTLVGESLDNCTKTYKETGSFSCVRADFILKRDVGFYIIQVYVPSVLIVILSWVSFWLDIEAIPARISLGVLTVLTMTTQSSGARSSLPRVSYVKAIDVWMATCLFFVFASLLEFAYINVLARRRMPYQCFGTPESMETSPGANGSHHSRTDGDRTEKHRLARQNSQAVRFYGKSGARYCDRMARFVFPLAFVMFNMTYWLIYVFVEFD
smiles,measurement,setting,value
N[C@@H](CCC(=O)O)C(=O)O [glutamate],"whole-cell patch clamp, 1-100 mM glutamate",GluClα2b,this mutation did not impede a robust response to glutamate at higher concentrations
same,"whole-cell patch clamp, 1 mM glutamate",GluClAc2,its mutation to an alanine failed to cause any noticeable change in the response to glutamate
